Data reported in ChEMBL document CHEMBL3885881, “DrugMatrix”.
Where “and” joins values, the source holds several entries; their conditions need not be identical. Equal values may be shown once.

Organism: Rattus norvegicus
Test: DrugMatrix - Regimen: Daily Repeat
Type: toxicity, organism-based, Sprague-Dawley
Set-up: regimen Daily Repeat, gender Male, age 6-8 weeks
Details: in vivo, ip, route intraperitoneal, vehicle 100 % SALINE; for ABSOLUTE BASOPHIL / ABSOLUTE EOSINOPHIL / ABSOLUTE LYMPHOCYTE / ABSOLUTE MONOCYTE / ABSOLUTE SEGMENTED NEUTROPHIL / BASOPHIL / EOSINOPHIL / ERYTHROCYTE COUNT / HEMATOCRIT / HEMOGLOBIN / LEUKOCYTE COUNT / LYMPHOCYTE / MEAN CORPUSCULAR HEMOGLOBIN / MEAN CORPUSCULAR HEMOGLOBIN CONCENTRATION / MEAN CORPUSCULAR VOLUME / MONOCYTE / NEUTROPHIL / PLATELET COUNT: tissue Blood
[1] = 0 mg/kg, 120 h, dose level Control, time 5 day
[2] = 0 mg/kg, 120 h, tissue Plasma, dose level Control, time 5 day
[3] = 0 mg/kg, […], dose level Control, time 14 day
[4] = 0 mg/kg, […], dose level Control, time 28 day
[5] = 0 mg/kg, […], tissue Plasma, dose level Control, time 14 day
[6] = 0 mg/kg, […], tissue Plasma, dose level Control, time 28 day
[7] = 2 mg/kg, 120 h, dose level High, time 5 day

Substance LEAD (II) ACETATE has an ABSOLUTE BASOPHIL [1] of 32 cells/µL, an ABSOLUTE EOSINOPHIL [1] of 110 cells/µL and an ABSOLUTE LYMPHOCYTE [1] of 6630 cells/µL. The ABSOLUTE MONOCYTE [1] was 140 cells/µL, the ABSOLUTE SEGMENTED NEUTROPHIL [1] was 1170 cells/µL and the BASOPHIL [1] was 0.38% and 0.35%. The EOSINOPHIL [1] was 1.28% and 0.62%, the “ERYTHROCYTE COUNT” value [1] was 7.45 x10E6/uL and 7.26 x10E6/uL and the HEMATOCRIT [1] was 45.74% and 47.97%. For the same substance, the HEMOGLOBIN [1] was 14.72 G/DL and 15.38 G/DL, the “LEUKOCYTE COUNT” value [1] was 8.11 x10E3/uL and 8.68 x10E3/uL and the LYMPHOCYTE [1] was 81.3% and 86.77%. For the same substance, the “MEAN CORPUSCULAR HEMOGLOBIN” value [1] was 19.76 pg and 21.18 pg, the “MEAN CORPUSCULAR HEMOGLOBIN CONCENTRATION” value [1] was 32.16 G/DL and 32.05 G/DL and the “MEAN CORPUSCULAR VOLUME” value [1] was 61.38 fL and 66.15 fL. For the same substance, the MONOCYTE [1] was 1.76% and 1.57%, the NEUTROPHIL [1] was 14.9% and 9.53% and the “PLATELET COUNT” value [1] was 1322.4 x10E3/uL and 1786 x10E3/uL. The “ALANINE AMINOTRANSFERASE” value [2] was 25.8 u/L and 20.5 u/L, the ALBUMIN [2] was 3.64 G/DL and 4.35 G/DL and the “ALKALINE PHOSPHATASE” value [2] was 300 u/L. For the same substance, the “ASPARTATE AMINOTRANSFERASE” value [2] was 81.4 u/L and 86.75 u/L, the “BLOOD UREA NITROGEN” value [2] was 14.4 mg/dL and 17 mg/dL and the “CARBON DIOXIDE” value [2] was 29 mmol/L. The CHOLESTEROL [2] was 69.2 mg/dL and 51.25 mg/dL, the “CREATINE PHOSPHOKINASE” value [2] was 303.2 u/L and 384.75 u/L and the CREATININE [2] was 0.56 mg/dL and 0.47 mg/dL. The GLUCOSE [2] was 125.4 mg/dL and 128.75 mg/dL, the “LACTATE DEHYDROGENASE” value [2] was 105.4 u/L and 145 u/L and the LIPASE [2] was 22.4 u/L and 13.25 u/L. For the same substance, the PHOSPHORUS [2] was 11.8 mg/dL, the POTASSIUM [2] was 5.52 MEQ/L and 6.58 MEQ/L and the SODIUM [2] was 147 MEQ/L and 151 MEQ/L. For the same substance, the “TOTAL BILIRUBIN” value [2] was 0.2 mg/dL and 0.33 mg/dL, the “TOTAL PROTEIN” value [2] was 6.1 G/DL and 6.53 G/DL and the “URIC ACID” value [2] was 1.06 mg/dL and 1.95 mg/dL. The ABSOLUTE BASOPHIL [3] was 130 cells/µL, the ABSOLUTE EOSINOPHIL [3] was 140 cells/µL and the ABSOLUTE LYMPHOCYTE [3] was 13500 cells/µL. For the same substance, the ABSOLUTE MONOCYTE [3] was 400 cells/µL, the ABSOLUTE SEGMENTED NEUTROPHIL [3] was 2330 cells/µL and the HEMATOCRIT [3] was 45.98%. For the same substance, the HEMOGLOBIN [3] was 15.17 G/DL, the “MEAN CORPUSCULAR VOLUME” value [3] was 59.4 fL and the NEUTROPHIL [3] was 14.14%. The ABSOLUTE BASOPHIL [4] was 91 cells/µL, the ABSOLUTE EOSINOPHIL [4] was 110 cells/µL and the ABSOLUTE LYMPHOCYTE [4] was 9910 cells/µL. It also gave an ABSOLUTE MONOCYTE [4] of 210 cells/µL, an ABSOLUTE SEGMENTED NEUTROPHIL [4] of 1560 cells/µL and a BASOPHIL [4] of 0.77%. The EOSINOPHIL [4] was 0.92%, the “ERYTHROCYTE COUNT” value [4] was 8.21 x10E6/uL and the HEMATOCRIT [4] was 47.53%. The HEMOGLOBIN [4] was 15.65 G/DL, the “LEUKOCYTE COUNT” value [4] was 11.91 x10E3/uL and the LYMPHOCYTE [4] was 83.34%. For the same substance, the “MEAN CORPUSCULAR HEMOGLOBIN” value [4] was 19.07 pg, the “MEAN CORPUSCULAR HEMOGLOBIN CONCENTRATION” value [4] was 32.93 G/DL and the “MEAN CORPUSCULAR VOLUME” value [4] was 57.9 fL. The MONOCYTE [4] was 1.68%, the NEUTROPHIL [4] was 12.97% and the “PLATELET COUNT” value [4] was 1323.8 x10E3/uL. For the same substance, the ALBUMIN [5] was 3.66 G/DL, the “CARBON DIOXIDE” value [5] was 25 mmol/L and the CHLORIDE [5] was 107 MEQ/L. The “CREATINE PHOSPHOKINASE” value [5] was 410.25 u/L, the SODIUM [5] was 149.2 MEQ/L and the “URIC ACID” value [5] was 0.94 mg/dL. For the same substance, the “ALANINE AMINOTRANSFERASE” value [6] was 30 u/L, the ALBUMIN [6] was 3.71 G/DL and the “ALKALINE PHOSPHATASE” value [6] was 186.8 u/L. The “ASPARTATE AMINOTRANSFERASE” value [6] was 78.2 u/L, the “BLOOD UREA NITROGEN” value [6] was 14.2 mg/dL and the CHOLESTEROL [6] was 44.9 mg/dL. For the same substance, the “CREATINE PHOSPHOKINASE” value [6] was 334.3 u/L, the CREATININE [6] was 0.6 mg/dL and the GLUCOSE [6] was 147.2 mg/dL. For the same substance, the “LACTATE DEHYDROGENASE” value [6] was 123.1 u/L, the LIPASE [6] was 9.6 u/L and the PHOSPHORUS [6] was 10.01 mg/dL. For the same substance, the POTASSIUM [6] was 6.57 MEQ/L, the SODIUM [6] was 149.5 MEQ/L and the “TOTAL BILIRUBIN” value [6] was 0.21 mg/dL. The “TOTAL PROTEIN” value [6] was 6.66 G/DL, the “URIC ACID” value [6] was 1.26 mg/dL and the ABSOLUTE BASOPHIL [7] was 120 cells/µL. It also gave an ABSOLUTE EOSINOPHIL [7] of 150 cells/µL, an ABSOLUTE LYMPHOCYTE [7] of 10100 cells/µL and an ABSOLUTE MONOCYTE [7] of 250 cells/µL. It also gave an ABSOLUTE SEGMENTED NEUTROPHIL [7] of 2470 cells/µL.
